In ChEMBL document CHEMBL5634130, “Exploring the structural-activity relationship of hexahydropyrazino[1,2-d]pyrido[3,2-b][1,4]oxazine derivatives as potent and orally-bioavailable PARP7 inhibitors” (Eur J Med Chem, 2023):
pIC50: −log10 of the molar value. Activity calls are given as the source filed them. The calls are words filed in the database; no cut-off is given here.

How the values were obtained:
NCI-H1373 [1] = assay: Antiproliferative activity against human NCI-H1373 cells assessed as inhibition of cell viability incubated for 4 days by luminescence based assay; conditions: NCI-H1373, 96 h
[2] = target: T1, Protein mono-ADP-ribosyltransferase TIPARP (Homo sapiens, UniProt Q7Z3E1); assay: Inhibition of PARP7 (unknown origin) using histone as substrate incubated for 1 hr by chemiluminescence assay
T1 sequence (Q7Z3E1 whole entry): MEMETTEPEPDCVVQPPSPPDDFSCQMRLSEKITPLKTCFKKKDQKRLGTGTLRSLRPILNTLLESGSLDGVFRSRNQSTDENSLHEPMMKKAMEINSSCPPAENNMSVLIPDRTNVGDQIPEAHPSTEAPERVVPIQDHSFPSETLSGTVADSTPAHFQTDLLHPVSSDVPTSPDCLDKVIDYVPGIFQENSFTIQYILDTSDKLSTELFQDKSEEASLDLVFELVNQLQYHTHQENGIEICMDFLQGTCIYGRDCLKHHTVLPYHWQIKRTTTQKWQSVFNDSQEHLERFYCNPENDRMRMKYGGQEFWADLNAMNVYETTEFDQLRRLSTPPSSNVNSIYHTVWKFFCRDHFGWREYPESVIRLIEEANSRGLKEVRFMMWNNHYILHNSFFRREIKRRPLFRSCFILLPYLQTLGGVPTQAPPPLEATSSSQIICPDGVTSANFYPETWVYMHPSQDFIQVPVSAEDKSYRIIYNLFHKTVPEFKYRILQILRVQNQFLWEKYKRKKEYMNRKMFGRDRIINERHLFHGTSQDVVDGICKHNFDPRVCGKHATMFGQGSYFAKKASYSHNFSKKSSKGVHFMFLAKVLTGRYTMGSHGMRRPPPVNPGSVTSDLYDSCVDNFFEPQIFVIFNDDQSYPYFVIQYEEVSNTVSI

RAW264.7 = assay: Inhibition of PARP7 in mouse RAW264.7 cells assessed as increase in IFN-beta level incubated for 24 hrs by ELISA; assay type: cell-based
[3] = Half life in fasted ICR mouse at 2 mg/kg, iv measured for 24 hrs by LC-MS analysis; assay type: ADME, organism-based; conditions: in vivo
[4] = Volume of distribution at steady state in fasted ICR mouse at 2 mg/kg, iv measured for 24 hrs by LC-MS analysis; assay type: ADME, organism-based; conditions: in vivo, read-out: Vdss
[5] = Oral bioavailability in fasted ICR mouse at 10 mg/kg measured for 24 hrs by LC-MS analysis; assay type: ADME, organism-based; conditions: in vivo
MDA-MB-436 = assay: Antiproliferative activity against human MDA-MB-436 cells assessed as inhibition of cell viability at 0.1 uM incubated for 7 days by luminescence based assay; assay type: functional; conditions: time 7.0 day
[6] = Clearance in fasted ICR mouse at 2 mg/kg, iv measured for 24 hrs by LC-MS analysis; assay type: ADME, organism-based; conditions: in vivo
[7] = Tmax in fasted ICR mouse at 10 mg/kg, po measured for 24 hrs by LC-MS analysis; assay type: ADME, organism-based; conditions: in vivo
[8] = Cmax in fasted ICR mouse at 10 mg/kg, po measured for 24 hrs by LC-MS analysis; assay type: ADME, organism-based; conditions: in vivo
[9] = AUC in fasted ICR mouse at 2 mg/kg, iv measured for 24 hrs by LC-MS analysis; assay type: ADME, organism-based; conditions: in vivo
[10] = Half life in fasted ICR mouse at 10 mg/kg, po measured for 24 hrs by LC-MS analysis; assay type: ADME, organism-based; conditions: in vivo
[11] = AUC in fasted ICR mouse at 10 mg/kg, po measured for 24 hrs by LC-MS analysis; assay type: ADME, organism-based; conditions: in vivo
NCI-H1373 [12] = assay: Antitumor activity against human NCI-H1373 cells xenografted in […] SCID mouse model assessed as tumor growth inhibition at 30 mg/kg, po administered everyday measured after 21 days relative to control; assay type: functional; conditions: NCI-H1373, 504 h, time 21 day, read-out: TGI
[13] = Toxicity in […] SCID mouse model xenografted with human NCI-H1373 cells assessed as animal death at 30 mg/kg, po measured for 21 days; assay type: organism-based; conditions: in vivo, 504 h, time 21 day
[14] = Toxicity in […] SCID mouse model xenografted with human NCI-H1373 cells assessed as body weight loss at 30 mg/kg, po measured for 21 days; assay type: organism-based; conditions: in vivo, 504 h, time 21 day

CC(COCCC(=O)N1CCN2c3ncc(C(F)(F)F)cc3OCC2C1)Nc1cn[nH]c(=O)c1C(F)(F)F (racemic)
pIC50 (NCI-H1373 [1]): 6.76 | pIC50 [2]: 7.99

C[C@@H](COCCC(=O)N1CCN2c3ncc(C#N)cc3OCC2C1)Nc1cn[nH]c(=O)c1C(F)(F)F (some centres undefined)
pIC50 (NCI-H1373 [1]): 6.59

O=C(CCOC[C@@H]1CCCN1c1cn[nH]c(=O)c1C(F)(F)F)N1CCN2c3ncc(C(F)(F)F)cc3OC[C@@H]2C1
pIC50 (NCI-H1373 [1]): 6.51 | pIC50 [2]: 7.86

O=C(CCOC[C@@H]1CCN1c1cn[nH]c(=O)c1C(F)(F)F)N1CCN2c3ncc(Cl)cc3OC[C@@H]2C1
inhibition (RAW264.7): Active | half-life [3]: 36 min | Vd [4]: 0.638 L/kg | bioavailability [5]: 25.8% | Activity (MDA-MB-436): inactive | clearance [6]: 49.4 mL/min/kg | Tmax [7]: 15 min | Cmax [8]: 400 ng/mL | pIC50 (NCI-H1373 [1]): 7.83 | pIC50 [2]: 9.18 | AUC at 24 h [9]: 421 ng·h/mL | t1/2 [10]: 126 min | AUC [11]: 544 ng·h/mL

C[C@@H](COCCC(=O)N1CCN2c3ncc(C(F)(F)F)cc3OC[C@@H]2C1)Oc1cn[nH]c(=O)c1C(F)(F)F
inhibition (RAW264.7): Active | half-life [3]: 102 min | Vd [4]: 0.668 L/kg | bioavailability [5]: 53.9% | Activity (MDA-MB-436): inactive | clearance [6]: 50.6 mL/min/kg | inhibition in vivo at 30 mg/kg (NCI-H1373 [12]): 62.4% | Tmax [7]: 15 min | Cmax [8]: 1840 ng/mL | Activity [13]: Non-Toxic | pIC50 (NCI-H1373 [1]): 7.82 | pIC50 [2]: 8.76 | AUC at 24 h [9]: 682 ng·h/mL | t1/2 [10]: 264 min | AUC [11]: 1835 ng·h/mL | Activity [14]: Non-Toxic

C[C@@H](COCCC(=O)N1CCN2c3ncc(C(F)(F)F)cc3OC[C@H]2C1)Nc1cn[nH]c(=O)c1C(F)(F)F
pIC50 (NCI-H1373 [1]): 7.07 | pIC50 [2]: 8.48

C[C@@H](COCCC(=O)N1CCN2c3ncc(C(F)(F)F)cc3OC[C@@H]2C1)Nc1cn[nH]c(=O)c1C(F)(F)F
half-life [3]: 30 min | Vd [4]: 0.104 L/kg | bioavailability [5]: 22.3% | clearance [6]: 61 mL/min/kg | Tmax [7]: 15 min | Cmax [8]: 408 ng/mL | pIC50 (NCI-H1373 [1]): 7.11 | pIC50 [2]: 8.73 | AUC at 24 h [9]: 274 ng·h/mL | t1/2 [10]: 120 min | AUC [11]: 306 ng·h/mL

Cc1cnc2c(c1)OCC1CN(C(=O)CCOC[C@H](C)Nc3cn[nH]c(=O)c3C(F)(F)F)CCN21 (some centres undefined)
pIC50 (NCI-H1373 [1]): 6.02

CC(COC[C@H](C)Nc1cn[nH]c(=O)c1C(F)(F)F)C(=O)N1CCN2c3ncc(C(F)(F)F)cc3OC[C@@H]2C1 (some centres undefined)
pIC50 (NCI-H1373 [1]): 6.01

CC(COCCC(=O)N1CCN2c3ncc(C(F)(F)F)cc3OC[C@H]2C1)Nc1cn[nH]c(=O)c1C(F)(F)F (mixture of isomers)
pIC50 (NCI-H1373 [1]): 6.74 | pIC50 [2]: 7.89

O=C(CCOC1CC(Nc2cn[nH]c(=O)c2C(F)(F)F)C1)N1CCN2c3ncc(C(F)(F)F)cc3OC[C@@H]2C1 (some centres undefined)
pIC50 (NCI-H1373 [1]): 6.40 | pIC50 [2]: 7.20

C[C@@H](COCCC(=O)N1CCN2c3ncc(Cl)cc3OCC2C1)Nc1cn[nH]c(=O)c1C(F)(F)F (some centres undefined)
pIC50 (NCI-H1373 [1]): 6.97

C[C@@H](CN1CC(C(=O)N2CCN3c4ncc(C(F)(F)F)cc4OC[C@@H]3C2)C1)Nc1cn[nH]c(=O)c1C(F)(F)F
pIC50 (NCI-H1373 [1]): < 5.52

CC(COCCC(=O)N1CCN2c3ncc(C(F)(F)F)cc3OC[C@@H]2C1)Nc1cn[nH]c(=O)c1C(F)(F)F (mixture of isomers)
pIC50 (NCI-H1373 [1]): 6.81 | pIC50 [2]: 8.03

C[C@@H](COCCC(=O)N1CCN2c3ncc(F)cc3OCC2C1)Nc1cn[nH]c(=O)c1C(F)(F)F (some centres undefined)
pIC50 (NCI-H1373 [1]): 6.16

C[C@@H](COc1cnc(N2CCN3c4ncc(C(F)(F)F)cc4OC[C@@H]3C2)nc1)Nc1cn[nH]c(=O)c1C(F)(F)F
pIC50 (NCI-H1373 [1]): 5.71

C[C@@H](COCCC(=O)N1CCN2c3ncc(C(F)(F)F)cc3OCC2C1)Nc1cn[nH]c(=O)c1C(F)(F)F (mixture of isomers)
pIC50 (NCI-H1373 [1]): 7.06 | pIC50 [2]: 8.68

C[C@@H](CN1CCC(C(=O)N2CCN3c4ncc(C(F)(F)F)cc4OC[C@@H]3C2)C1)Nc1cn[nH]c(=O)c1C(F)(F)F (some centres undefined)
pIC50 (NCI-H1373 [1]): 6.04

O=C(CCOCC1CCN1c1cn[nH]c(=O)c1C(F)(F)F)N1CCN2c3ncc(C(F)(F)F)cc3OC[C@@H]2C1 (some centres undefined)
pIC50 (NCI-H1373 [1]): 8.22 | pIC50 [2]: 9.15
